# Results from PubChem BioAssay AID210 (DTP/NCI, 2004).
# “And” between values parts separate entries of the source, which are not always exact repeats. Equal values may be shown once. Inconclusive results and toxic doses are left out.
# Tested on: CD2F1 mice, ip Colon 26 adenocarcinoma, median survival T/C
# Assay: NCI In Vivo Anticancer Drug Screen. Data for tumor model Colon 26 Adenocarcinoma (intraperitoneal) in CD2F1 (CDF1) mice
# Details: endpoint: median survival time, higher = longer survival
# Protocol: The antitumor activity of compounds was measured in mice bearing transplantable tumors. Survival or tumor size were measured and the results are expressed as the measurement made in the treated group (T) divided by the measurement made in the vehicle treated control group (C). The tumor model used in this assay is Colon 26 Adenocarcinoma (intraperitoneal) in CD2F1 (CDF1) mice
# [1] = dose: 12.5 mg/kg/injection, schedule: Q04DX003 (ip), vehicle: Klucel (hydroxypropylcellulose) (HPC)
# [2] = dose: 25.0 mg/kg/injection, schedule: Q04DX003 (ip), vehicle: Klucel (hydroxypropylcellulose) (HPC)
# [3] = dose: 50.0 mg/kg/injection, schedule: Q04DX003 (ip), vehicle: Klucel (hydroxypropylcellulose) (HPC)
# [4] = dose: 100.0 mg/kg/injection, schedule: Q04DX003 (ip), vehicle: Klucel (hydroxypropylcellulose) (HPC)
# [5] = dose: 200.0 mg/kg/injection, schedule: Q04DX003 (ip), vehicle: Klucel (hydroxypropylcellulose) (HPC)
# [6] = dose: 25.0 mg/kg/injection, schedule: Q04DX003 (ip), vehicle: saline
# [7] = dose: 50.0 mg/kg/injection, schedule: Q04DX003 (ip), vehicle: saline
# [8] = dose: 25.0 mg/kg/injection, schedule: Q04DX003 (ip), vehicle: saline with Tween-80
# [9] = dose: 50.0 mg/kg/injection, schedule: Q04DX003 (ip), vehicle: saline with Tween-80
# [10] = dose: 100.0 mg/kg/injection, schedule: Q04DX003 (ip), vehicle: saline with Tween-80
# [11] = dose: 200.0 mg/kg/injection, schedule: Q04DX003 (ip), vehicle: saline with Tween-80
# [12] = dose: 400.0 mg/kg/injection, schedule: Q04DX003 (ip), vehicle: saline with Tween-80
smiles,measurement,setting,value
CNc1nc(N(C)C)nc(N(C)C)n1,T/C,"dose: 6.25 mg/kg/injection, schedule: Q04DX003 (ip), vehicle: water",105 % of control
same,T/C,"dose: 12.5 mg/kg/injection, schedule: Q04DX003 (ip), vehicle: water",101 % of control
same,T/C,"dose: 25.0 mg/kg/injection, schedule: Q04DX003 (ip), vehicle: water",98 % of control
same,T/C,"dose: 50.0 mg/kg/injection, schedule: Q04DX003 (ip), vehicle: water",112 % of control
same,T/C,"dose: 100.0 mg/kg/injection, schedule: Q04DX003 (ip), vehicle: water",121 % of control
same,T/C,"dose: 200.0 mg/kg/injection, schedule: Q04DX003 (ip), vehicle: water",110 % of control
C[C@]12CCC(=O)[C@@](C)(CO)[C@@H]1[C@H](O)C[C@H]1C[C@@H]3C[C@@]12CC[C@]3(O)CO,T/C,"dose: 5.0 mg/kg/injection, schedule: Q04DX003 (ip), vehicle: saline with Tween-80",98 % of control
same,T/C,"dose: 10.0 mg/kg/injection, schedule: Q04DX003 (ip), vehicle: saline with Tween-80",96 % of control
same,T/C,"dose: 20.0 mg/kg/injection, schedule: Q04DX003 (ip), vehicle: saline with Tween-80",90 % of control
same,T/C,"dose: 40.0 mg/kg/injection, schedule: Q04DX003 (ip), vehicle: saline with Tween-80",90 % of control
same,T/C,"dose: 80.0 mg/kg/injection, schedule: Q04DX003 (ip), vehicle: saline with Tween-80",100 % of control
N=c1ccn2c(n1)OC1C(O)C(CO)OC12 (stereo not given),T/C,"dose: 111.0 mg/kg/injection, schedule: Q01DX009 (ip), vehicle: saline with Tween-80",110 % of control
same,T/C,"dose: 167.0 mg/kg/injection, schedule: Q01DX009 (ip), vehicle: saline with Tween-80",115 % of control
same,T/C,"dose: 250.0 mg/kg/injection, schedule: Q01DX009 (ip), vehicle: saline with Tween-80",121 % of control
CCC1OCC(C(Cl)CCl)O1 (stereo not given),T/C,[1],116 % of control
same,T/C,[2],97 % of control
same,T/C,[3],99 % of control
same,T/C,[4],104 % of control
same,T/C,[5],92 % of control
O=P1(N(CCCl)CCCl)NCCCO1 (stereo not given),T/C,"dose: 50.0 mg/kg/injection, schedule: Q03DX002 (ip), vehicle: saline",106 % of control
same,T/C,"dose: 51.0 mg/kg/injection, schedule: Q07DX003 (ip), vehicle: saline",119 % of control
same,T/C,"dose: 100.0 mg/kg/injection, schedule: Q03DX002 (ip), vehicle: saline",117 % of control
same,T/C,"dose: 105.0 mg/kg/injection, schedule: Q07DX003 (ip), vehicle: saline",154 % of control
same,T/C,"dose: 150.0 mg/kg/injection, schedule: Q07DX003 (ip), vehicle: saline",165 % of control
C=C(C)[C@]12CC(C)C34OC(/C=C\C=C\CCCCCCCCC)(O[C@@H]1[C@@H]3[C@@H]1O[C@]1(CO)[C@@H](O)[C@]1(O)C(=O)C(C)=C[C@@H]41)O2 (stereo not given in full),T/C,"dose: 0.18 mg/kg/injection, schedule: Q04DX003 (ip), vehicle: distilled water + alcohol",102 % of control
same,T/C,"dose: 0.37 mg/kg/injection, schedule: Q04DX003 (ip), vehicle: distilled water + alcohol",105 % of control
same,T/C,"dose: 0.75 mg/kg/injection, schedule: Q04DX003 (ip), vehicle: distilled water + alcohol",114 % of control
COC(OC(CO)C(O)S(=O)(=O)O)C(O)S(=O)(=O)O (stereo not given),T/C,"dose: 12.5 mg/kg/injection, schedule: Q04DX003 (ip), vehicle: saline",97 % of control
same,T/C,[6],102 % of control
same,T/C,[7],102 % of control
same,T/C,"dose: 100.0 mg/kg/injection, schedule: Q04DX003 (ip), vehicle: saline",108 % of control
same,T/C,"dose: 200.0 mg/kg/injection, schedule: Q04DX003 (ip), vehicle: saline",109 % of control
same,T/C,"dose: 400.0 mg/kg/injection, schedule: Q04DX003 (ip), vehicle: saline",100 % of control
NC(C/[N+]([O-])=N/O)C(=O)O (stereo not given),T/C,"dose: 8.78 mg/kg/injection, schedule: Q01DX010 (ip), vehicle: alkali diluted with saline",99 % of control
same,T/C,"dose: 13.2 mg/kg/injection, schedule: Q01DX010 (ip), vehicle: alkali diluted with saline",100 % of control
same,T/C,"dose: 19.8 mg/kg/injection, schedule: Q01DX010 (ip), vehicle: alkali diluted with saline",96 % of control
same,T/C,"dose: 29.6 mg/kg/injection, schedule: Q01DX010 (ip), vehicle: alkali diluted with saline",113 % of control
same,T/C,"dose: 44.4 mg/kg/injection, schedule: Q01DX010 (ip), vehicle: alkali diluted with saline",104 % of control
same,T/C,"dose: 66.7 mg/kg/injection, schedule: Q01DX010 (ip), vehicle: alkali diluted with saline",95 % of control
CN(C1=NS(=O)(=O)N=C(N(C)c2ccccc2)O1)c1ccccc1,T/C,[1],96 % of control
same,T/C,[2],89 % of control
same,T/C,[3],95 % of control
same,T/C,[5],90 % of control
Cc1c2oc3c(C)c([N+](=O)[O-])cc(C(=O)NC4C(=O)NC(C(C)C)C(=O)N5CCCC5C(=O)N(C)CC(=O)N(C)C(C(C)C)C(=O)OC4C)c3nc-2c(C(=O)NC2C(=O)NC(C(C)C)C(=O)N3CCCC3C(=O)N(C)CC(=O)N(C)C(C(C)C)C(=O)OC2C)c(N)c1=O (stereo not given),T/C,"dose: 500.0 micrograms/kg/injection, schedule: Q01DX001 (ip), vehicle: saline + alcohol",112 % of control
COc1cc([C@@H]2c3cc4c(cc3[C@@H](OC3OC5COC(C)OC5C(O)C3O)[C@H]3COC(=O)[C@H]23)OCO4)cc(OC)c1O (stereo not given in full),T/C,"dose: 25.0 mg/kg/injection, schedule: Q03DX002 (ip), vehicle: other",103 % of control
same,T/C,"dose: 32.0 mg/kg/injection, schedule: Q04DX003 (ip), vehicle: saline",151 % of control
same,T/C,"dose: 40.0 mg/kg/injection, schedule: Q03DX002 (ip), vehicle: other",120 % of control
same,T/C,"dose: 60.0 mg/kg/injection, schedule: Q03DX002 (ip), vehicle: other",107 % of control
same,T/C,"dose: 64.0 mg/kg/injection, schedule: Q04DX003 (ip), vehicle: saline",193 % of control
C/C=C(\C)C(=O)OC1C(C)C2(O)C(C=C(CO)CC3(O)C(=O)C(C)=CC32)C2C(C)(C)C12OC(=O)CCCCCCCCC (stereo not given),T/C,"dose: 0.03 mg/kg/injection, schedule: Q04DX003 (ip), vehicle: saline + alcohol",93 % of control
same,T/C,"dose: 0.06 mg/kg/injection, schedule: Q04DX003 (ip), vehicle: saline + alcohol",86 % of control
same,T/C,"dose: 0.13 mg/kg/injection, schedule: Q04DX003 (ip), vehicle: saline + alcohol",90 % of control
same,T/C,"dose: 0.25 mg/kg/injection, schedule: Q04DX003 (ip), vehicle: saline + alcohol",86 % of control
C1OC1CN1CCN(CC2CO2)CC1 (stereo not given),T/C,"dose: 3.12 mg/kg/injection, schedule: Q04DX003 (ip), vehicle: saline",112 % of control and 98 % of control
same,T/C,"dose: 6.25 mg/kg/injection, schedule: Q04DX003 (ip), vehicle: saline",108 % of control and 120 % of control
same,T/C,[6],167 % of control
same,T/C,[7],175 % of control and 193 % of control
CCCNCCNc1ccc(NCCNCCC)c2c1C(=O)c1ccccc1C2=O,T/C,"dose: 4.0 mg/kg/injection, schedule: Q01DX009 (ip), vehicle: acid diluted with saline",106 % of control
same,T/C,"dose: 8.0 mg/kg/injection, schedule: Q01DX009 (ip), vehicle: acid diluted with saline",98 % of control
same,T/C,"dose: 16.0 mg/kg/injection, schedule: Q01DX009 (ip), vehicle: acid diluted with saline",100 % of control
OC(CBr)C(O)C(O)C(O)CBr (stereo not given),T/C,[8],114 % of control
same,T/C,[3],107 % of control
same,T/C,[9],102 % of control
same,T/C,[4],117 % of control
same,T/C,[10],96 % of control
same,T/C,[11],102 % of control
same,T/C,[12],114 % of control
same,T/C,"dose: 800.0 mg/kg/injection, schedule: Q04DX003 (ip), vehicle: Klucel (hydroxypropylcellulose) (HPC)",163 % of control
Nc1ccc(Cl)cc1N,T/C,"dose: 12.5 mg/kg/injection, schedule: Q04DX003 (ip), vehicle: saline + Tween-80 + alcohol",96 % of control
same,T/C,"dose: 12.5 mg/kg/injection, schedule: Q04DX003 (ip), vehicle: saline with Tween-80",100 % of control
same,T/C,"dose: 25.0 mg/kg/injection, schedule: Q04DX003 (ip), vehicle: saline + Tween-80 + alcohol",98 % of control
same,T/C,[8],100 % of control
same,T/C,"dose: 50.0 mg/kg/injection, schedule: Q04DX003 (ip), vehicle: saline + Tween-80 + alcohol",102 % of control
same,T/C,[9],100 % of control
same,T/C,"dose: 100.0 mg/kg/injection, schedule: Q04DX003 (ip), vehicle: saline + Tween-80 + alcohol",104 % of control
same,T/C,[10],102 % of control
same,T/C,"dose: 200.0 mg/kg/injection, schedule: Q04DX003 (ip), vehicle: saline + Tween-80 + alcohol",107 % of control
same,T/C,[11],106 % of control
same,T/C,[12],109 % of control
COC(=O)Nc1cccc(-c2nc3ccc(NC(=O)OC)cc3c(=O)n2-c2ccccc2)c1,T/C,"dose: 64.0 mg/kg/injection, schedule: Q04DX003 (ip), vehicle: Klucel (hydroxypropylcellulose) (HPC)",171 % of control
